Legend:
Format in all cases: functional
BT-549 = test: Anticancer activity against human BT-549 cells assessed as cell growth at 10 umol/L incubated for 48 hrs by SRB assay relative to control; details: BT-549, 48 h, dose 10 µmol/L, read-out: Activity
HCT-116 = test: Anticancer activity against human HCT-116 cells assessed as cell growth at 10 umol/L incubated for 48 hrs by SRB assay relative to control; details: HCT-116, 48 h, dose 10 µmol/L, read-out: Activity
NCI-H522 = test: Anticancer activity against human NCI-H522 cells assessed as cell growth at 10 umol/L incubated for 48 hrs by SRB assay relative to control; details: NCI-H522, 48 h, dose 10 µmol/L, read-out: Activity
ACHN = test: Anticancer activity against human ACHN cells assessed as cell growth at 10 umol/L incubated for 48 hrs by SRB assay relative to control; details: dose 10 µmol/L, read-out: Activity
Malme-3M = test: Anticancer activity against human Malme-3M cells assessed as cell growth at 10 umol/L incubated for 48 hrs by SRB assay relative to control; details: dose 10 µmol/L, read-out: Activity
NCI-H460 = test: Anticancer activity against human NCI-H460 cells assessed as cell growth at 10 umol/L incubated for 48 hrs by SRB assay relative to control; details: NCI-H460, 48 h, dose 10 µmol/L, read-out: Activity
MDA-MB-468 = test: Anticancer activity against human MDA-MB-468 cells assessed as cell growth at 10 umol/L incubated for 48 hrs by SRB assay relative to control; details: MDA-MB-468, 48 h, dose 10 µmol/L, read-out: Activity
UO-31 = test: Anticancer activity against human UO-31 cells assessed as cell growth at 10 umol/L incubated for 48 hrs by SRB assay relative to control; details: UO-31, 48 h, dose 10 µmol/L, read-out: Activity
NCI-H322M = test: Anticancer activity against human NCI-H322M cells assessed as cell growth at 10 umol/L incubated for 48 hrs by SRB assay relative to control; details: dose 10 µmol/L, read-out: Activity
OVCAR-4 = test: Anticancer activity against human OVCAR-4 cells assessed as cell growth at 10 umol/L incubated for 48 hrs by SRB assay relative to control; details: OVCAR-4, 48 h, dose 10 µmol/L, read-out: Activity
UACC-257 = test: Anticancer activity against human UACC-257 cells assessed as cell growth at 10 umol/L incubated for 48 hrs by SRB assay relative to control; details: UACC-257, 48 h, dose 10 µmol/L, read-out: Activity
HCT-15 = test: Anticancer activity against human HCT-15 cells assessed as cell growth at 10 umol/L incubated for 48 hrs by SRB assay relative to control; details: HCT-15, 48 h, dose 10 µmol/L, read-out: Activity
K562 [1] = test: Induction of apoptosis in human K562 cells at 0.5 uM incubated for 3 days by RNase/PI staining based flow cytometry (reference value: 1.4 %); details: time 3 day
K562 [2] = test: Induction of cell cycle arrest in human K562 cells at G1 phase at 0.5 uM incubated for 3 days by RNase/PI staining based flow cytometry (reference value: 50 %); details: time 3 day
SF-539 = test: Anticancer activity against human SF-539 cells assessed as cell growth at 10 umol/L incubated for 48 hrs by SRB assay relative to control; details: SF-539, 48 h, dose 10 µmol/L, read-out: Activity
DU-145 = test: Anticancer activity against human DU-145 cells assessed as cell growth at 10 umol/L incubated for 48 hrs by SRB assay relative to control; details: DU-145, 48 h, dose 10 µmol/L, read-out: Activity
A549 = test: Anticancer activity against human A549 cells assessed as cell growth at 10 umol/L incubated for 48 hrs by SRB assay relative to control; details: A549, 48 h, dose 10 µmol/L, read-out: Activity
HCC 2998 = test: Anticancer activity against human HCC 2998 cells assessed as cell growth at 10 umol/L incubated for 48 hrs by SRB assay relative to control; details: HCC 2998, 48 h, dose 10 µmol/L, read-out: Activity
HT-29 = test: Anticancer activity against human HT-29 cells assessed as cell growth at 10 umol/L incubated for 48 hrs by SRB assay relative to control; details: HT-29, 48 h, dose 10 µmol/L, read-out: Activity
MDA-MB-435 = test: Anticancer activity against human MDA-MB-435 cells assessed as cell growth at 10 umol/L incubated for 48 hrs by SRB assay relative to control; details: MDA-MB-435, 48 h, dose 10 µmol/L, read-out: Activity
U-251 = test: Anticancer activity against human U-251 cells assessed as cell growth at 10 umol/L incubated for 48 hrs by SRB assay relative to control; details: U-251, 48 h, dose 10 µmol/L, read-out: Activity
MDA-MB-231 = test: Anticancer activity against human MDA-MB-231 cells assessed as cell growth at 10 umol/L incubated for 48 hrs by SRB assay relative to control; details: MDA-MB-231, 48 h, dose 10 µmol/L, read-out: Activity
SF-268 = test: Anticancer activity against human SF-268 cells assessed as cell growth at 10 umol/L incubated for 48 hrs by SRB assay relative to control; details: SF-268, 48 h, dose 10 µmol/L, read-out: Activity
SK-MEL-2 = test: Anticancer activity against human SK-MEL-2 cells assessed as cell growth at 10 umol/L incubated for 48 hrs by SRB assay relative to control; details: SK-MEL-2, 48 h, dose 10 µmol/L, read-out: Activity
EKVX = test: Anticancer activity against human EKVX cells assessed as cell growth at 10 umol/L incubated for 48 hrs by SRB assay relative to control; details: dose 10 µmol/L, read-out: Activity
SNB-75 = test: Anticancer activity against human SNB-75 cells assessed as cell growth at 10 umol/L incubated for 48 hrs by SRB assay relative to control; details: SNB-75, 48 h, dose 10 µmol/L, read-out: Activity
Hs-578T = test: Anticancer activity against human Hs-578T cells assessed as cell growth at 10 umol/L incubated for 48 hrs by SRB assay relative to control; details: dose 10 µmol/L, read-out: Activity
SF-295 = test: Anticancer activity against human SF-295 cells assessed as cell growth at 10 umol/L incubated for 48 hrs by SRB assay relative to control; details: SF-295, 48 h, dose 10 µmol/L, read-out: Activity
[3] = system: Panel NCI-60 (60 carcinoma cell lines); test: Antiproliferative activity against human panel NCI-60 (60 carcinoma cell lines) assessed as total inhibition of cell growth incubated for 48 hrs by SRB assay
K562 [4] = test: Induction of cell cycle arrest in human K562 cells at S phase at 0.5 uM incubated for 3 days by RNase/PI staining based flow cytometry (reference value: 16 %); details: time 3 day
MCF7 = test: Anticancer activity against human MCF7 cells assessed as cell growth at 10 umol/L incubated for 48 hrs by SRB assay relative to control; details: MCF7, 48 h, dose 10 µmol/L, read-out: Activity

Compound	growth at 10 µM (BT-549) [%]	growth at 10 µM (HCT-116) [%]	growth at 10 µM (NCI-H522) [%]	growth at 10 µM (ACHN) [%]	growth at 10 µM (Malme-3M) [%]	growth at 10 µM (NCI-H460) [%]	growth at 10 µM (MDA-MB-468) [%]	growth at 10 µM (UO-31) [%]	growth at 10 µM (NCI-H322M) [%]	growth at 10 µM (OVCAR-4) [%]	growth at 10 µM (UACC-257) [%]	growth at 10 µM (HCT-15) [%]	Activity (K562 [1]) [%]	Activity (K562 [2]) [%]	growth at 10 µM (SF-539) [%]	growth at 10 µM (DU-145) [%]	growth at 10 µM (A549) [%]	growth at 10 µM (HCC 2998) [%]	growth at 10 µM (HT-29) [%]	growth at 10 µM (MDA-MB-435) [%]	further results
CCN1C(=O)N(CC)C2C1NN=c1s/c(=C\c3ccc(Cl)cc3Cl)c(=O)n12 (stereo unspecified)	15.9	9.7	-8.8	26.7	50.4	5.7	5.4	35.9	42.4	46.1	68.6	9.5	5	13	12.8	6	14.6	7.2	2.8	-24.8	growth at 10 µM (U-251): 11%; growth at 10 µM (MDA-MB-231): 12.4%; growth at 10 µM (SF-268): 42.3%; growth at 10 µM (SK-MEL-2): -20.8%; growth at 10 µM (EKVX): 50.1%; growth at 10 µM (SNB-75): 19.7%; growth at 10 µM (Hs-578T): 15.8%; growth at 10 µM (SF-295): -12.6%; GI [3]: >66.8 µM; Activity (K562 [4]): 14%; growth at 10 µM (MCF7): 14%
COc1cc2c(c(OC)c1OC)-c1ccc(OC)c(=O)cc1[C@@H](NC(C)=O)CC2 [COLCHICINE]	55.1	0.2	-64.2	30.5	39	2.9	70.5	21.2	36.1	56.4	24.9	-16.8	3.1	18	7.9	7.6	44.9	-59	-29.9	-50.8	growth at 10 µM (U-251): 19%; growth at 10 µM (MDA-MB-231): 11.7%; growth at 10 µM (SF-268): 35.1%; growth at 10 µM (SK-MEL-2): -32%; growth at 10 µM (EKVX): 35.8%; growth at 10 µM (SNB-75): 19.3%; growth at 10 µM (Hs-578T): -7.1%; growth at 10 µM (SF-295): -10.6%; Activity (K562 [4]): 19%; growth at 10 µM (MCF7): -9.6%

Source: ChEMBL document CHEMBL5385976, “Recognition of arylmethylidene derivatives of imidazothiazolotriazinones as novel tubulin polymerization inhibitors” (RSC Med Chem, 2024)
